Experimental data published in ChEMBL document CHEMBL1201862, “PubChem BioAssay data set” (2004).
Each block holds one compound with its values, some of them ahead of it. Calls of active or inactive are those of the source.

Assays:
[1] = molecular target: Kallikrein-7 (Homo sapiens, UniProt P49862); assay: Fluorescence Intensity-based biochemical primary high throughput dose response assay to identify activators of kallikrein-7 (K7) zymogen.
[2] = viability loss in THP-1 monocytes – THP-1 cells, cytotoxicity control for Vif-APOBEC3G degradation inhibitor project, dose response (AID 1117359); type: functional; details: THP-1
[3] = molecular target: T1, Protein Tat (Human immunodeficiency virus type 1 group M subtype B (isolate HXB2)(HIV-1), UniProt P04608); type: functional;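 further: tat binding to TAR RNA read out by fluorescence polarization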
T1 sequence (P04608 whole entry): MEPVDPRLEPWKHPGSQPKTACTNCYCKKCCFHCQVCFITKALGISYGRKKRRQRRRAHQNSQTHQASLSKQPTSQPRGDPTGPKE

[4] = molecular target: T2, Trace amine-associated receptor 1 (Homo sapiens, UniProt Q96RJ0); assay: Counterscreen for agonists of the human trace amine associated receptor 1 (hTAAR1): Fluorescence-based cell-based high throughput dose response assay to identify hTAAR1 agonist that also desensitize TAAR1 receptor response.; type: functional
T2 sequence (Q96RJ0 whole entry): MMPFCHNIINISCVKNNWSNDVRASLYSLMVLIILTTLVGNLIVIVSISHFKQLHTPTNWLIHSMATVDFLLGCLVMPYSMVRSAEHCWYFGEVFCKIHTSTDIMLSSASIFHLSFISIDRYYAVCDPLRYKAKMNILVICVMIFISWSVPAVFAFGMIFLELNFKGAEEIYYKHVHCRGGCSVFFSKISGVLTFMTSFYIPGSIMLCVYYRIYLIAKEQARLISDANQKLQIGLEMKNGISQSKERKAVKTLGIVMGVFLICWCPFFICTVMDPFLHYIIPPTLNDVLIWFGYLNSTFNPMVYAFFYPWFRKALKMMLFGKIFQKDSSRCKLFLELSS

[5] = cells; type: functional, cell-based
[6] = cells; type: functional, cell-based; remark: listed apart in the source
[7] = molecular target: T2, Trace amine-associated receptor 1; assay: Fluorescence-based cell-based high throughput dose response assay to identify agonists of the human trace amine associated receptor 1 (TAAR1).; type: functional
[8] = HIV-1 AD8 envelope cell-cell fusion blockers – cherry-pick, dose response (AID 652062); type: functional, cell-based;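 further: luciferase signal from cell-cell fusion driven by HIV-1 clade B AD8 Env; potency is for inhibitors of fusion seen as a drop in luminescence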
[9] = blockers of HIV-1 envelope-mediated cell-cell fusion – cherry-pick, dose response (AID 652057); type: functional, cell-based
[10] = off-target signal loss in HeLa-CEM21 co-culture – HeLa F-luc CTL cells, cherry-picked, counter-screen for HIV-1 Env fusion inhibitor project, dose response (AID 652040); type: functional, cell-based;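 further: potency for signal decrease marking cytotoxic or nonspecific inhibition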
[11] = blockers of HIV-1 ZM109 envelope-driven cell-cell fusion – HeLa effector, CEM target cells, luciferase, cherry-pick, dose response (AID 652058); type: functional, cell-based;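 further: luciferase signal from HIV-1 Env mediated cell-cell fusion of effector and target cells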
[12] = toxicity toward HepG2 liver cells – cell-based, plate reader, cherry-pick, antagonist series, cytotoxicity control, dose response (AID 743416); type: functional
[13] = molecular target: T3, Fatty acid synthase (Homo sapiens, UniProt P49327); assay: inhibition of human FAS-TE enzyme activity – biochemical, kinetic fluorescence intensity, dose response (AID 624326); type: functional;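 further: rate of fluorescence rise from hydrolysis of a fluorogenic O-methyl fluorescein ester substrate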
[14] = molecular target: T3, Fatty acid synthase; assay: inhibition of human FAS-TE enzyme activity – biochemical, endpoint fluorescence intensity, uHTS hits, dose response (AID 624327); type: functional;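 further: fluorescence from hydrolysis of an O-methyl fluorescein acyl ester substrate by the enzyme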
[15] = blockers of bursicon-stimulated LGR2 cAMP reporter – cell-based, HEK293, CRE-luciferase reporter, cherry pick, set 2, dose response (AID 743343); type: functional;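 further: transfected cells were stimulated with diluted bursicon conditioned medium after compound addition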
[16] = blockade of melanocortin 4 receptor signaling – cell-based, plate reader, cherry pick, counter-screen for LGR2 antagonist project, dose response (AID 743444); type: functional;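 further: transfected HEK 293 cells stimulated with alpha-MSH peptide; potency of inhibitors of the alpha-MSH evoked signal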
[17] = molecular target: 5-hydroxytryptamine receptor 2A (Mus musculus, UniProt P35363); type: functional, cell-based;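 further: CHO-K1 cells with tagged receptor and beta-arrestin; agonist potency measured as compound-induced activation of the receptor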
Sequence of 5-hydroxytryptamine receptor 2A (P35363 whole entry): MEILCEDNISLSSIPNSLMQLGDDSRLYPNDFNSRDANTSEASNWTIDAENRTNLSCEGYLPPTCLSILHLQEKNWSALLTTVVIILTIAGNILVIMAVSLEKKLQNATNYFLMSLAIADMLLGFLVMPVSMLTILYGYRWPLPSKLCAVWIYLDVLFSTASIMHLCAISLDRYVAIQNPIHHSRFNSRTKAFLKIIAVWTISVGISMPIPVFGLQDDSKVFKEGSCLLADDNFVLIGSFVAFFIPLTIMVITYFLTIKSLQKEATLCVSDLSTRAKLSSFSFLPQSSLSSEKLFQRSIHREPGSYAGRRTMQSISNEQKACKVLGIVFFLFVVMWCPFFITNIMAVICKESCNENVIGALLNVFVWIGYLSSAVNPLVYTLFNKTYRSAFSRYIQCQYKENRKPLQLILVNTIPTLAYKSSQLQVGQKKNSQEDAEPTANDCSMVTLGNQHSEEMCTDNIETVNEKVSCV

[18] = molecular target: Mu-type opioid receptor (Homo sapiens, UniProt P35372); type: functional, cell-based;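 further: U2OS cells with beta-arrestin recruitment to OPRM1 by beta-gal complementation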
Sequence of Mu-type opioid receptor (P35372 whole entry): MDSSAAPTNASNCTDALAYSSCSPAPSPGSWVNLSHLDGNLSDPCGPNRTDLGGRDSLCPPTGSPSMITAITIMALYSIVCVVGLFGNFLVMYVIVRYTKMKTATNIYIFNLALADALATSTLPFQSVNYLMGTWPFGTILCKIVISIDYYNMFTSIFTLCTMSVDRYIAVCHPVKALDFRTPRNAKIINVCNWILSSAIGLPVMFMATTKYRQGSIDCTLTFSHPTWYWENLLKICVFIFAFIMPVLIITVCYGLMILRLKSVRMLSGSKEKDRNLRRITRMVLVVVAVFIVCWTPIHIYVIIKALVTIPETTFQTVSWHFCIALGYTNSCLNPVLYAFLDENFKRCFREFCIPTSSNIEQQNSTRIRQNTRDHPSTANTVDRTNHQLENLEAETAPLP

[19] = molecular target: T4, Ubiquitin carboxyl-terminal hydrolase BAP1 (Homo sapiens, UniProt Q92560); assay: inhibition of BAP1 ubiquitin hydrolase activity – biochemical, dose response (AID 714); type: functional
T4 sequence (Q92560 whole entry): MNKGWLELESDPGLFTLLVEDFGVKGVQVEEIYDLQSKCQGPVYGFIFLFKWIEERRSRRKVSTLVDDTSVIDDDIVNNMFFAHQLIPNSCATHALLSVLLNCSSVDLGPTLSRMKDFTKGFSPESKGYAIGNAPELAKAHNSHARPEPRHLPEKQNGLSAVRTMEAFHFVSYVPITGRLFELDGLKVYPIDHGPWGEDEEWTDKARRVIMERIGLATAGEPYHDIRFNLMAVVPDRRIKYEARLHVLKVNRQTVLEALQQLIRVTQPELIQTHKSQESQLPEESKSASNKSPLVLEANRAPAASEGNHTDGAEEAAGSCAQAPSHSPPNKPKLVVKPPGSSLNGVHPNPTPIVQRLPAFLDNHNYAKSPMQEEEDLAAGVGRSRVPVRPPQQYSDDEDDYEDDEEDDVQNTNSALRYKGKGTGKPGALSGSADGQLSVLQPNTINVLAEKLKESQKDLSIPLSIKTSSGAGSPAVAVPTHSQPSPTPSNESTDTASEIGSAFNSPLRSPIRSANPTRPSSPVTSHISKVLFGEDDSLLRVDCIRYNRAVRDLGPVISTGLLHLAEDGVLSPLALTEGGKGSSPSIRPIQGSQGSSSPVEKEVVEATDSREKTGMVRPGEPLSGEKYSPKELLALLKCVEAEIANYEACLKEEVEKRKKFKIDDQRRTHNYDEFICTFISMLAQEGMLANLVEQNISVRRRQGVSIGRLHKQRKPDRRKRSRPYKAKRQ

[20] = molecular target: Protein-tyrosine kinase 2-beta (Homo sapiens, UniProt Q14289);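 further: potency of inhibitors of PYK2 kinase phosphorylation of poly-GT substrate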
Sequence of Protein-tyrosine kinase 2-beta (Q14289 whole entry): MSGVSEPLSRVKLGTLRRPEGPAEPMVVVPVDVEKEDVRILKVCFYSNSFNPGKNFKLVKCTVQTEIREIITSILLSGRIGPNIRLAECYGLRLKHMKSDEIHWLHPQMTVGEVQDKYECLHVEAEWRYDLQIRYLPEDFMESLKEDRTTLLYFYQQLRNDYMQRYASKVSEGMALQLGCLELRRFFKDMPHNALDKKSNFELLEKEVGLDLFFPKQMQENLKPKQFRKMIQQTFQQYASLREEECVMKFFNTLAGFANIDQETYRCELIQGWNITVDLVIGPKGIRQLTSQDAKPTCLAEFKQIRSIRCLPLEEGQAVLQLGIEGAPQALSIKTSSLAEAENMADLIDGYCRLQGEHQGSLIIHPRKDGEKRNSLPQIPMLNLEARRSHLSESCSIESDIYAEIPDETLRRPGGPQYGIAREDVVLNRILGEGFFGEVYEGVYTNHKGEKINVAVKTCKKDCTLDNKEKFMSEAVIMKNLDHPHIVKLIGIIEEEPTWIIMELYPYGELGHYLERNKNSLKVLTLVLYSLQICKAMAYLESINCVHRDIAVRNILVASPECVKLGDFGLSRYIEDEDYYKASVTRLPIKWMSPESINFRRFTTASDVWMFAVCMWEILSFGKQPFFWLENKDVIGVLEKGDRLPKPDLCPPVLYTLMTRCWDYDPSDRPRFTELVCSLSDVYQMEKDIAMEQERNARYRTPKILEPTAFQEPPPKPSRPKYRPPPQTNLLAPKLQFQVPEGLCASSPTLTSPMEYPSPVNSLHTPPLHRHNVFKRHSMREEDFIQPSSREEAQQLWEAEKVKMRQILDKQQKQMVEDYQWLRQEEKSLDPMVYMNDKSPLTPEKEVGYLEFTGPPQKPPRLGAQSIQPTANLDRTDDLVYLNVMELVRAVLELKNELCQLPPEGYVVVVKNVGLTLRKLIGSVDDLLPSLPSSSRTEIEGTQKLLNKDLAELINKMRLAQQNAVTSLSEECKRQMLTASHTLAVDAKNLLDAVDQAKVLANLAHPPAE

[21] = Dd2 parasite growth inhibition in erythrocytes – SYBR Green, dry powder samples, set 9, dose response (AID 1159568); type: functional, cell-based
[22] = molecular target: T5, Calpain-2 catalytic subunit (Sus scrofa, UniProt P43367); assay: m-calpain protease blockers, concentration series – biochemical, fluorogenic peptide substrate, dose response (AID 1420); type: functional
T5 sequence (P43367 whole entry): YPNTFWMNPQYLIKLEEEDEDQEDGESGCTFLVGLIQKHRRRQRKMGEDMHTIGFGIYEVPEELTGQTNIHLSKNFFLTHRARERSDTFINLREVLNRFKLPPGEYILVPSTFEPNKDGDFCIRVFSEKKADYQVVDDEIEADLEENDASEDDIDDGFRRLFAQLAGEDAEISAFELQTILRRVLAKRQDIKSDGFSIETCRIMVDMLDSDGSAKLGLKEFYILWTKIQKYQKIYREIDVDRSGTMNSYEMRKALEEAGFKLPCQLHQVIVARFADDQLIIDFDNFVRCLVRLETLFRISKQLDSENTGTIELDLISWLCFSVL

[23] = molecular target: Cytochrome P450 2C9 (Homo sapiens, UniProt P11712)
Sequence of Cytochrome P450 2C9 (P11712 whole entry): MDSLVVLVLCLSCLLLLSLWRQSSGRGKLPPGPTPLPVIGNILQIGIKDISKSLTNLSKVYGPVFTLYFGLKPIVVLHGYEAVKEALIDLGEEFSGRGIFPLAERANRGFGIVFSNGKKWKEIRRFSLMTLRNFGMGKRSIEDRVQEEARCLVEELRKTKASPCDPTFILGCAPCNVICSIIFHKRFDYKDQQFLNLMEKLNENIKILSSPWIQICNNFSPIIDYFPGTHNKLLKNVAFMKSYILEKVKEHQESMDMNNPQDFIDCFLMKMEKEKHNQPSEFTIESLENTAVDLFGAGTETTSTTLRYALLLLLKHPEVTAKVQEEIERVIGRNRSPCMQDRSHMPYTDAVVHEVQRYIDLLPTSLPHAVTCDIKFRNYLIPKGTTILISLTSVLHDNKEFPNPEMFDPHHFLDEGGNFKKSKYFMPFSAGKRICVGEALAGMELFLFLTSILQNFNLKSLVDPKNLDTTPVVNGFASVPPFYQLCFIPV

[24] = molecular target: Cytochrome P450 2C19 (Homo sapiens, UniProt P33261); assay: Cytochrome panel assay with activity outcomes. Panel member name: p450-cyp2c19 Compounds with AC50 equal or less than 10 uM are considered active; type: functional
Sequence of Cytochrome P450 2C19 (P33261 whole entry): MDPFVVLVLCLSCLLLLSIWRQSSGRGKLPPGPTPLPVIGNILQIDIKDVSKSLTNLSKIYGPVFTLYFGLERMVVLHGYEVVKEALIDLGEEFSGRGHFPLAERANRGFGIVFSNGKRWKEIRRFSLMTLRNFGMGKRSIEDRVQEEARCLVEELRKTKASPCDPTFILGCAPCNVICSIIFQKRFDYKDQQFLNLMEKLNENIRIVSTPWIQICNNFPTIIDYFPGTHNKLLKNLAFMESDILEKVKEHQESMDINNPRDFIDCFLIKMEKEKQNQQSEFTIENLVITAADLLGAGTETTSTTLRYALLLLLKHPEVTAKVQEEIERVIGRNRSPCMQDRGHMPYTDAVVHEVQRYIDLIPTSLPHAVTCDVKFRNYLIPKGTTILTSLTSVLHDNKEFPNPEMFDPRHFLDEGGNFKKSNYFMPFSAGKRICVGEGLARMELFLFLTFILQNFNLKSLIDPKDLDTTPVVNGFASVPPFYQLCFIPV

[25] = molecular target: T6, Estrogen receptor beta (Homo sapiens, UniProt Q92731); assay: blockers of SRC-3 recruitment to ERβ – biochemical, ELISA, streptavidin-HRP readout, orthogonal assay, confirmation (AID 1060)
T6 sequence (Q92731 whole entry): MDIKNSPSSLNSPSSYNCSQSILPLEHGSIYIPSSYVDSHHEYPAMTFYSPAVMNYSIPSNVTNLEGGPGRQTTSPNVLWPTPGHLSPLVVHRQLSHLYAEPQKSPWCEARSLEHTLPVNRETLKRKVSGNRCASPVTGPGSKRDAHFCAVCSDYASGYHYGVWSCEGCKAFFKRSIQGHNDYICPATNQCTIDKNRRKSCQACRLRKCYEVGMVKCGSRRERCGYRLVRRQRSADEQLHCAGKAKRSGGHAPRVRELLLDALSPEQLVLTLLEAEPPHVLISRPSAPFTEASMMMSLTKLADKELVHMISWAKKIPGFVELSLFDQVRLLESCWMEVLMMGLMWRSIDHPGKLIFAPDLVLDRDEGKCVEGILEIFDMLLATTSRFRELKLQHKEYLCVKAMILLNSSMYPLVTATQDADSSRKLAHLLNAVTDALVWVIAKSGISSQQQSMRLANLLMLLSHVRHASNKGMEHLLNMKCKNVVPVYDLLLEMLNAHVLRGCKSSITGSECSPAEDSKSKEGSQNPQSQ

[26] = molecular target: T6, Estrogen receptor beta
[27] = molecular target: Cytochrome P450 3A4 (Homo sapiens, UniProt P08684);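 further: CYP3A4 tested as one member of a cytochrome P450 panel screen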
Sequence of Cytochrome P450 3A4 (P08684 whole entry): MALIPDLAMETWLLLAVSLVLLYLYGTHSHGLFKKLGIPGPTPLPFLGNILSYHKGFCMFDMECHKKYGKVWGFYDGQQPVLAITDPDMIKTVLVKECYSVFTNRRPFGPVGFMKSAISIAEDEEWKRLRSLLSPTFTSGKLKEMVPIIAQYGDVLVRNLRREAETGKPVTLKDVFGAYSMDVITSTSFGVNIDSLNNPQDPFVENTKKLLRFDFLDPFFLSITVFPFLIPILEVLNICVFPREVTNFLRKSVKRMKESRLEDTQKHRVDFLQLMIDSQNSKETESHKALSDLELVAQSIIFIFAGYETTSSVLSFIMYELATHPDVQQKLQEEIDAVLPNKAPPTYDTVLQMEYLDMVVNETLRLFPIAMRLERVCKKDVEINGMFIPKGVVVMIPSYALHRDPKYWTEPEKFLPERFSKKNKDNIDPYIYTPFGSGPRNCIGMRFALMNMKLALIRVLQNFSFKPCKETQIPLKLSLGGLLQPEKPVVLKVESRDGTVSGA

[28] = molecular target: Ion channel NompC (Danio rerio, UniProt Q7T1G6); assay: Fluorescence counterscreen assay for TRPML3 agonists: dose response cell-based high-throughput screening assay to identify agonists of the transient receptor potential channel N1 (TRPN1). [Related pubchem assays: 1526, 1424, 1448 ]; type: functional
[29] = molecular target: T7, Mucolipin-3 (Homo sapiens, UniProt Q8TDD5); assay: Dose response cell-based high-throughput screening assay for agonists of the transient receptor potential channel ML3 (TRPML3). [Related pubchem assays: 1526, 1424, 1448 ]; type: functional
T7 sequence (Q8TDD5 whole entry): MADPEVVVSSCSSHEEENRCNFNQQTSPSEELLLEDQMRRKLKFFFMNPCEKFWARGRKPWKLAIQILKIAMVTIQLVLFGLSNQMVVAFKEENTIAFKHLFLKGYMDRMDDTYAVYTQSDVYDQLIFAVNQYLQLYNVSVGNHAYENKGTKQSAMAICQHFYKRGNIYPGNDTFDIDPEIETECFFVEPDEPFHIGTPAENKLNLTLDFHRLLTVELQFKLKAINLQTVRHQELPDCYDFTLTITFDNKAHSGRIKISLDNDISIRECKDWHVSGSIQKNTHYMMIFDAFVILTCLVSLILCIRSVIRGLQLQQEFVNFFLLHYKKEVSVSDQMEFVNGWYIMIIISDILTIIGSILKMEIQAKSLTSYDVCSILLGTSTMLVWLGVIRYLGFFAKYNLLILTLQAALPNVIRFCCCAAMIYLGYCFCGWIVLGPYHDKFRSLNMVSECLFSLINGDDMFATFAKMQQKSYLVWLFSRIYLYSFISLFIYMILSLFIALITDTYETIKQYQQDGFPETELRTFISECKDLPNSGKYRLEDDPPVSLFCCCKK

Sequence of Kallikrein-7 (P49862 whole entry): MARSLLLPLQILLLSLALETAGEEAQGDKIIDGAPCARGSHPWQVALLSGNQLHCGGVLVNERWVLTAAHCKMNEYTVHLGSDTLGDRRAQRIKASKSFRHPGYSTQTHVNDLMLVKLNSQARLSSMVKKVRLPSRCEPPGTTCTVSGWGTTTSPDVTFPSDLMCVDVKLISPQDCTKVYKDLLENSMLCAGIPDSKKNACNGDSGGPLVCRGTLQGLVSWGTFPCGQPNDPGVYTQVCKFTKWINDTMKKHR

EC50 [1]: 7.44 µM (active)
SMILES: C[C@H](O)[C@@H]1C(=O)N2CCc3c([nH]c4ccccc34)[C@@H]2C[C@@H]1N(C)S(=O)(=O)c1ccccc1

IC50 [3]: 18.3 µM (inconclusive)
SMILES: CCC(/C=C(\O)c1ccncc1)=N\c1ccc(O)cc1
CC50 [2]: > 40 µM (active)

SMILES: Cc1ccn2c(=O)c(C(=O)NCCC3=CCCCC3)c(O)nc2c1
IC50 [4]: > 29.9 µM (inactive)
EC50 [5]: > 29.9 µM (inactive)
IC50 [6]: > 29.9 µM (inactive)
EC50 [7]: 3.44 µM (active)

SMILES: CCOc1ccc(N(CC(=O)NCCSCc2ccc(Cl)cc2)S(C)(=O)=O)cc1
AC50 [8]: 5.88 µM (active)
AC50 [9]: 5.62 µM (active)
AC50 [10]: 9.39 µM (active)
AC50 [11]: 9.3 µM (active)

SMILES: O=Cc1cn(Cc2cccc([N+](=O)[O-])c2)c2ccccc12
AC50 [12]: 0.625 µM (active)
IC50 [13]: 10.9 µM (active)
IC50 [14]: 12 µM (active)
AC50 [15]: 1.28 µM (active)
AC50 [16]: 0.801 µM (active)

EC50 [17]: 0.637 µM (active)
EC50 [18]: 92.5 µM (inactive)
SMILES: OC(COCc1cccs1)CN1CCN(c2ccccn2)CC1 (stereo not drawn)

IC50 [19]: > 50 µM (not active)
SMILES: O=C(NCc1ccco1)c1cc2n(n1)C(C(F)(F)F)CC(c1ccc(Br)cc1)N2 (stereo not drawn)

SMILES: CC1(C(=O)NCc2cccc3ccccc23)CCN1Cc1ccc(-c2ccccc2)o1 (stereo not drawn)
AC50 [8]: 2.57 µM (active)
AC50 [9]: 2.31 µM (active)
AC50 [10]: 4.07 µM (active)
AC50 [11]: 4.71 µM (active)

IC50 [20]: 4.49 µM (active)
SMILES: O=C(Oc1ccccc1Cl)c1ccccc1P(=O)(O)O

IC50 [19]: 17.3 µM (active)
SMILES: Cc1cccc2cc(C(c3nnnn3C(C)(C)C)N3CCN(C(=O)c4ccco4)CC3)c(=O)[nH]c12 (stereo not drawn)

SMILES: O=C(O)/C=C/C(=O)NCCc1ccc(Cl)cc1
IC50 [4]: > 29.9 µM (inactive)
EC50 [5]: > 29.9 µM (inactive)
IC50 [6]: > 29.9 µM (inactive)
EC50 [7]: 51.7 µM (inactive)

SMILES: COc1ccc(NC(=O)N(C)C[C@H]2Oc3c(NC(=O)CCCCCC(=O)Nc4ccccc4N)cccc3C(=O)N([C@H](C)CO)C[C@H]2C)cc1
AC50 [21]: 0.304 µM (active)

IC50 [20]: 5.59 µM (active)
SMILES: COc1cccc(CN2CC(=O)C(c3nc(-c4ccc(Cl)cc4)cs3)=C2N)c1

IC50 [20]: 2.79 µM (active)
IC50 [22]: > 50 µM (not active)
SMILES: CCOc1ccc(NC2=NC(=O)S/C2=C\c2ccc(Cl)cc2)cc1

IC50 [19]: 30.2 µM (not active)
IC50 [3]: 47.4 µM (inconclusive)
SMILES: CN(C)c1ccc(NC(=O)CSc2nc3ccccc3c(=O)n2C2CCCCC2)cc1
CC50 [2]: > 40 µM (active)

EC50 [17]: 0.0593 µM (active)
EC50 [18]: 92.5 µM (inactive)
SMILES: Cc1ccc(CN2CCN(c3ccccn3)CC2)s1

EC50 [1]: > 69.5 µM (inactive)
SMILES: Cc1ccc(/C=N/c2ccccc2C(N)=O)cc1

AC50 [23]: 0.1 µM (inconclusive)
AC50 [24]: inconclusive
IC50 [25]: 32.1 µM (not active)
IC50 [26]: 18.4 µM (active)
AC50 [27]: 39.8 µM (inconclusive)
SMILES: Cc1ccc(C)c(C(=O)C2=C(O)C(=O)N(CCN3CCOCC3)C2c2ccco2)c1 (stereo not drawn)

EC50 [17]: 0.865 µM (active)
EC50 [18]: 92.4 µM (inactive)
SMILES: CC(=O)c1ccc(OCC(O)CN2CCN(c3ccccn3)CC2)cc1 (stereo not drawn)

SMILES: O=C(NC1CCCCC1)C(=S)NCCc1ccccc1
IC50 [4]: 5.49 µM (active)
EC50 [5]: > 29.9 µM (inactive)
IC50 [6]: > 29.9 µM (inactive)
EC50 [7]: 2.41 µM (active)

EC50 [28]: > 29.9 µM (not active)
EC50 [29]: > 29.9 µM (not active)
SMILES: CC1(C)CCCC2=C1CC1C(=O)N(c3ccccc3)C(=O)C1C2 (stereo not drawn)

SMILES: COc1ccccc1C#Cc1ccc([C@@H]2[C@@H](CO)N3CCCCN(C(=O)C4CCC4)C[C@H]23)cc1
AC50 [21]: 8.41 µM (active)
